According to patent publication US4716222A, “Substrates for hydrolases” (Hoechst Aktiengesellschaft, priority 1984, dated 1987):
Each block holds one compound with its values, some of them ahead of it.

Columns and labels:
leukocyte esterase = test: Determination of leukocyte esterase with test strips; type: biochemical; settings: test strips immersed in leukocyte suspensions
Method: Indicator paper No. 218 supplied by Macherey-Nage, Dueren, Federal Republic of Germany, was impregnated successively with the following solutions and was dried:
(a) aqueous boric acid buffer 0.25 mol/l, pH 8
(b) tosylalanylresorufin 0.25 g dissolved in 1 l of ethyl acetate.
The drying temperature selected for solution (a) was about 80° C. and that for (b) was about 120° C. The samples used were suspensions containing various concentrations of leukocytes, into which the test strips were briefly immersed. After about 1 minute a red-violet color developed, the intensity of which depended on the concentration of leukocytes. The detection sensitivity of this test system is about 1000 leukocytes per microliter.

α-glucosidase = test: Kinetic determination of α-glucosidase activity in human urine; type: biochemical
Excerpt: The activity of α-glucosidase in human urine can be determined very sensitively in a kinetic test with the new substrate 2H-7-0-(α-D-glucopyranosyl)-4-methyl-8-nitrobenzopyran-2-one (compound S1, see Example 1). Since the pH optimum of α-glucosidase is 4 to 6, the activity cannot be measured kinetically with the hitherto customary substrate p-nitrophenyl α-glucopyranoside because the released nitrophenol has only a very low extinction at 405 nm (Table 1).
In contrast, with compound S1 as substrate an absorbance difference in normal human urine of 0,040 per minute could be measured in a kinetic test, and thus the automation of this determination is possible.
A further possibility for the kinetic determination of α-glucosidase activity is the use of 3-H-7-O-(α-glucopyranosyl)phenoxazin-3-one (resorufin-α-D-glucopyranoside). […] At 37°, using 400 μl reagent and 200 μl urine an absorbance difference of 0.136 α per minute was found.

β-glucosidase = test: Specificity check with purified β-glucosidase; type: biochemical
β-galactosidase [1] = test: Cleavage of the substrate by β-galactosidase (specificity); type: biochemical
Method: (§1) The activity of the β-galactosidase in human urine could be kinetically determined by the use of 3-O-([…])-3-hydroxy-2-nitropyridine. For this purpose 0.2 ml of 10-fold concentrated normal urine was added to 1 ml of buffered substrate solution and the extinction change recorded at 405 nm and 22° C. Under these conditions an extinction difference of 1.2 mE/min was measured.
(§2) The β-galactosidase activity could be kinetically measured in human urine by the use of 2H-7-O-(β-D-galactopyranosyl)-4-methyl-8-nitrobenzopyran-2-one (compound S15). An extinction change of 4 mE/min was recorded at 23° C. and 366 nm with the use of 200 μl of buffered substrate solution and 200 μl of urine of normal concentration. […] Also, β-galactosidase in human urine could be kinetically determined by using resorufin-β-D-galactopyranoside (compound S6). […] The activity of β-glucuronidase in human urine could be kinetically measured with 2H-7-O-(β-D-glucuronopyranosyl)-4-methyl-8-nitrobenzopyran-2-one (compound S9).

β-galactosidase [2] = biological target: T1, β-galactosidase (Homo sapiens, UniProt P06280); test: Kinetic determination of galactosidase in human urine with the α-D-galactopyranosyl nitropyridine substrate; type: biochemical; settings: 0.2 ml 10-fold concentrated normal urine + 1 ml buffered substrate solution, 405 nm, 22° C.
T1 construct: from tissue; host or cells: human urine, 10-fold concentrated
T1 sequence (P06280 32-429): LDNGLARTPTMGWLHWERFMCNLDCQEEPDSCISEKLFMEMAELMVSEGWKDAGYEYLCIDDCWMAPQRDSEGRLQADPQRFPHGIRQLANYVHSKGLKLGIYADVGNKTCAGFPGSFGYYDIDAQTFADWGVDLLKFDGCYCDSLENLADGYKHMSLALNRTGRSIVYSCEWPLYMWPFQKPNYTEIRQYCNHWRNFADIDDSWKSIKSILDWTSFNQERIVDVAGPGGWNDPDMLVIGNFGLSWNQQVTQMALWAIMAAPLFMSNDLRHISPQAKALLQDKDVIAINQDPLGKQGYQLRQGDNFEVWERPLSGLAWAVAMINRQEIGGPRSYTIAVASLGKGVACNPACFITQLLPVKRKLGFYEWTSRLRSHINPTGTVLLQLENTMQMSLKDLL
Method: as §1

β-galactosidase [3] = biological target: T2, β-galactosidase (Homo sapiens, UniProt P16278); test: Kinetic determination of β-galactosidase activity in human urine; type: biochemical
T2 construct: from tissue; host or cells: human urine
T2 sequence (P16278 29-677): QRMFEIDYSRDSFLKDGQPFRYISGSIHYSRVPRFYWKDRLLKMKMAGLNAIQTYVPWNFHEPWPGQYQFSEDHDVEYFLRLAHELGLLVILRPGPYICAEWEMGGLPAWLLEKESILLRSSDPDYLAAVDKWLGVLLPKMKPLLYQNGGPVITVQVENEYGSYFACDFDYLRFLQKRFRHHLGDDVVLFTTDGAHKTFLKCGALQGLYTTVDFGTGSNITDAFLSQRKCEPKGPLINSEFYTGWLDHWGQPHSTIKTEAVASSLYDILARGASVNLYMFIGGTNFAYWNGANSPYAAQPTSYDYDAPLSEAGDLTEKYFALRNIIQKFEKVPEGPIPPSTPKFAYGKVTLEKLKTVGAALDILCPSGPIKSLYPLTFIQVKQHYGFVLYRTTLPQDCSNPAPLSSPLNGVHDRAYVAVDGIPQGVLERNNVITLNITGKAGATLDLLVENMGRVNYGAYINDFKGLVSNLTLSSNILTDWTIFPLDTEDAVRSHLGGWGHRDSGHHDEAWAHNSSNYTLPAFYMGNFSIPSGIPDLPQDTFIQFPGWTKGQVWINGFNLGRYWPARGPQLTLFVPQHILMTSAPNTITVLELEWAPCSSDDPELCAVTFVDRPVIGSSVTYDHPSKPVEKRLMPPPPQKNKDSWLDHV
Method: as §2

IgE = test: Determination of IgE with a state of the art enzyme immunoassay; settings: same incubation periods
Method: A substantial increase in sensitivity could be achieved using the new substrates in an enzyme immunoassay of the state of the art. In this assay the IgE concentration is determined, as a measure of an allergy by means of the indirect antibody technique. With the same incubation periods for the different substrates, an approximately 4.3-fold higher absorbance for resorufin-β-galactoside (compound S6) and an approximately 1.7-fold higher absorbance for 3-hydroxy-2-nitropyridine-β-galacto-side was measured than for the commercially available o-nitrophenyl-β-galactoside.

[4] = tested on: N-acetyl-β-glucosaminidase; test: Determination of N-acetylglucosaminidase (enzyme from ox kidney); type: biochemical
Method: The sensitivity of the substrates p-nitrophenyl N-acetylaminoglucoside and 2H-7-O-(2-acetamido-2-deoxy-D-glucopyranosyl)-4-methyl-8-nitrobenzopyran-2-one ([…]) were compared to each other using N-acetyl-β-glucosaminidase from ox kidney. To 0.5 ml of substrate solution was added 0.1 ml of an enzyme solution diluted 1:101 (Sigma) and the absorbance change determined at 22° C. and 405 or 365 nm.

N-acetylglucosaminidase = biological target: T3, N-acetylglucosaminidase (Homo sapiens, UniProt P06865+P07686); test: Kinetic determination of N-acetylglucosaminidase activity in human urine; type: biochemical; settings: 365 nm, 10-fold concentrated normal urine
T3 construct: from tissue; host or cells: human urine, 10-fold concentrated
T3 sequence (P07686 122-556): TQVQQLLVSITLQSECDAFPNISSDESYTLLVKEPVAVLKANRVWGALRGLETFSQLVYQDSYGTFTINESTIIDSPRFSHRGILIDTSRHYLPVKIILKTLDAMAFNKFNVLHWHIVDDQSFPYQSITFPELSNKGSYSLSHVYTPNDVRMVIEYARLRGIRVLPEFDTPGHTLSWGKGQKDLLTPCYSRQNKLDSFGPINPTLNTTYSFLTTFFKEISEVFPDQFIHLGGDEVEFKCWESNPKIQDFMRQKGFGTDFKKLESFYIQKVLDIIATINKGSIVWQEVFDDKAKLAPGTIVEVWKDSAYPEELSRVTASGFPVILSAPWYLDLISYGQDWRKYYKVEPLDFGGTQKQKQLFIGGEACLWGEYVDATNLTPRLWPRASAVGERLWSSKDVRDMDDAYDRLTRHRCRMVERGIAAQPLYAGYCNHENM
T3 sequence (P06865 89-529): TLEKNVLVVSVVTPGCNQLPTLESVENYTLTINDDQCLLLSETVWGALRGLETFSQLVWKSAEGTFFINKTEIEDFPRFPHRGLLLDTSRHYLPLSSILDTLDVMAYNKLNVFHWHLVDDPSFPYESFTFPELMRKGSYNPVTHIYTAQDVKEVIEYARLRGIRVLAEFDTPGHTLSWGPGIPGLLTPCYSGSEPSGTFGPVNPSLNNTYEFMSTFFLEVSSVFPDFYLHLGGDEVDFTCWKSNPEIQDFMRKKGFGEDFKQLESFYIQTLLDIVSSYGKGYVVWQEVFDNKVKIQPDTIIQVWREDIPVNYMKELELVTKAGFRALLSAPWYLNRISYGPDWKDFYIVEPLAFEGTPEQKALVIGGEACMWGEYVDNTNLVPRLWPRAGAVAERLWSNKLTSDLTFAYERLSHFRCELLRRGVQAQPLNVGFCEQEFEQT
Method: The activity in human urine (10-fold concentrated) can also be kinetically determined with S8. The determination with 0.5 buffered substrate solution and 0.1 ml 10-fold concentrated normal urine at 37° C. and 365 nm gave an absorbance change of 0,023 A/min at pH 5.5 and of 0,014 A/min at pH 4.5.

β-glucuronidase = biological target: T4, β-glucuronidase (Homo sapiens, UniProt P08236); test: Determination of β-glucuronidase in human urine; type: biochemical; settings: human urine concentrate, pH 5, 30° C., 366 nm
T4 construct: from tissue; host or cells: human urine concentrate
T4 sequence (P08236 23-651): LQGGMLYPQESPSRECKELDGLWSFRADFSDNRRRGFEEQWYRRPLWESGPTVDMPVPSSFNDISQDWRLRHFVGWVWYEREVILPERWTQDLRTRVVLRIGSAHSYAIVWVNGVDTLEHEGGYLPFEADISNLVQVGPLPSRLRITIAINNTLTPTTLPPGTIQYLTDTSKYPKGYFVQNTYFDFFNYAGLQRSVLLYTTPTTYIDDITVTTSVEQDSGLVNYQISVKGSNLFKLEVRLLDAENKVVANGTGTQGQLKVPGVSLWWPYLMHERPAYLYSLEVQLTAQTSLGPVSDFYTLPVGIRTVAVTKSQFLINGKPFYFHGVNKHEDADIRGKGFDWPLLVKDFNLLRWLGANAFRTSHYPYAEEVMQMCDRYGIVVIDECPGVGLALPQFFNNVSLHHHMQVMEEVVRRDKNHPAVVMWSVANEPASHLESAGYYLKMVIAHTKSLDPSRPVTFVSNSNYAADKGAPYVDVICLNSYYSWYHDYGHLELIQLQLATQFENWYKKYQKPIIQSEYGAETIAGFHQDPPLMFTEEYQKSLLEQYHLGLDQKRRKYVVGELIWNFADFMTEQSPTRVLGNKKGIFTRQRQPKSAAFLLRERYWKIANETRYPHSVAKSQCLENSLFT
Method: as §2
In this case, 0.1 ml of urine concentrate was added to 0.6 ml of buffered substrate solution and the activity recorded at pH 5, 30° C. and 366 nm. Under these conditions an absorbance difference of 0,014 A/min was measured. Consequently the determination is many times more sensitive than with the customary p-nitrophenyl substrate (Table 4).

absorbance difference per minute (α-glucosidase; normal human urine, kinetic test): 0,040 per minute
cleavage by β-glucosidase / specificity for α-glucosidase (β-glucosidase): not cleaved by β-glucosidase
SMILES: Cc1cc(=O)oc2c([N+](=O)[O-])c(O[C@H]3O[C@H](CO)[C@@H](O)[C@H](O)[C@H]3O)ccc12 [compound S1, 2H-7-O-(α-D-Glucopyranosyl)-4-methyl-8-nitrobenzopyran-2-one]

absorbance change, fold greater than with p-nitrophenyl acetylaminoglucoside ([4]; pH 4.5): ~36 fold
delta A/min ([4]; pH 4.5, 22° C., 405 or 365 nm, enzyme solution diluted 1:101): 0.266 A/min
absorbance change (N-acetylglucosaminidase; pH 4.5, 37° C.): 0,014 A/min
absorbance change (N-acetylglucosaminidase; pH 5.5, 37° C.): 0,023 A/min
SMILES: CC(=O)N[C@H]1[C@H](Oc2ccc3c(C)cc(=O)oc3c2[N+](=O)[O-])O[C@H](CO)[C@@H](O)[C@@H]1O [compound S8]

delta A/min (β-glucuronidase): 0,014 A/min
SMILES: Cc1cc(=O)oc2c([N+](=O)[O-])c(O[C@@H]3O[C@H](C(=O)O)[C@@H](O)[C@H](O)[C@H]3O)ccc12 [compound S9, 2H-7-O-(1-β-D-Glucuronopyranosyl)-4-methyl-8-nitrobenzopyran-2-one]

The remaining lines, values behind:

SMILES: CC(C)C[C@H](NC(=O)OC(C)(C)C)C(=O)Oc1ccc2nc3ccc(=O)cc-3oc2c1 [Boc-Leu-resorufin]
detection sensitivity (leukocyte esterase): 2000 leukocytes per microliter

SMILES: O=[N+]([O-])c1ncccc1O[C@H]1O[C@H](CO)[C@H](O)[C@H](O)[C@H]1O [compound S3, 3-O-(α-D-Galactopyranosyl)-2-nitropyridine]
cleavage by β-galactosidase (β-galactosidase [1]): not cleaved by β-galactosidase
extinction difference (β-galactosidase [2]): 1.2 mE/min

SMILES: O=c1ccc2nc3ccc(O[C@@H]4O[C@H](CO)[C@H](O)[C@H](O)[C@H]4O)cc3oc-2c1 [compound S6, Resorufin-8-β-D-galactopyranoside]
absorbance change (β-galactosidase [3]; 578 nm, 37° C., human urine): 0,0038 A/min
absorbance change (IgE; measuring wavelength 576 nm, same sample): 0.761
fold higher absorbance than o-nitrophenyl-β-galactoside (IgE): approximately 4.3 fold

SMILES: Cc1cc(=O)oc2c([N+](=O)[O-])c(O[C@@H]3O[C@H](CO)[C@H](O)[C@H](O)[C@H]3O)ccc12 [compound S15, 2H-7-O-(β-Galactopyranosyl)-4-methyl-8-nitrobenzopyran-2-one]
extinction change (β-galactosidase [3]; 23° C., 366 nm, 200 μl buffered substrate solution + 200 μl urine of normal concentration): 4 mE/min
cleavage by β-galactosidase (β-galactosidase [1]): not cleaved by β-galactosidase

SMILES: O=c1ccc2nc3ccc(O[C@H]4O[C@H](CO)[C@@H](O)[C@H](O)[C@H]4O)cc3oc-2c1 [resorufin-α-D-glucopyranoside, 3-H-7-O-(α-glucopyranosyl)phenoxazin-3-one]
absorbance difference per minute (α-glucosidase; 37°, 400 μl reagent and 200 μl urine, 578 nm, pH 6): 0.136 per minute
cleavage by β-glucosidase / specificity for α-glucosidase (β-glucosidase): specific substrate for α-glucosidase

SMILES: Cc1ccc(S(=O)(=O)N[C@@H](C)C(=O)Oc2ccc3nc4ccc(=O)cc-4oc3c2)cc1 [tosylalanylresorufin]
detection sensitivity (leukocyte esterase): about 1000 leukocytes per microliter
